Assay results as given in patent US8247349B2, “Enhanced abscisic acid analog and fertilizer performance” (Valent BioSciences Corporation, priority 2007, dated 2012).
Read-outs that look alike come from different tables or passages of the source.

Key:
[1] = system: tomato plant leaves; settings: in vivo
[2] = system: tomato leaf transpiration; experiment: Tomato leaf transpiration inhibition after foliar application (LI-1600 Steady State Porometer); assay type: in vivo, Tomato (variety: Rutgers)
[3] = system: tomato plant leaves; experiment: Phytotoxicity study: number of injured leaves after foliar application; settings: for Number of injured leaves: 25 ppm ABA analog alone, one foliar application; for Phytotoxicity (in words): 25 ppm alone, 10-day experimental period

N.N.O=S(=O)(O)O [(NH4)2SO4, ammonium sulfate]
Phytotoxicity (in words) [1]: showed phytotoxicity

C#CC1(C)CC(=O)C=C(C)C1(O)/C=C/C(C)=C\C(=O)OC (centres unmarked) [PBI-429, 8′ acetylene-ABA methyl ester]
Transpiration rate (% of control) ([2]; 25 ppm alone, 1 day after treatment): 60 % of control
Transpiration rate (% of control) ([2]; 25 ppm alone, 2 days after treatment): 42 % of control
Transpiration rate (% of control) ([2]; 25 ppm alone, 3 days after treatment): 64 % of control
Transpiration rate (% of control) ([2]; 25 ppm alone, 4 days after treatment): 63 % of control
Transpiration rate (% of control) ([2]; 25 ppm alone, 7 days after treatment): 87 % of control
Transpiration rate (% of control), Average ([2]; 25 ppm alone, average over days 1-7): 63 % of control
Number of injured leaves ([3]; 5 days after treatment): 0.0
Number of injured leaves ([3]; 10 days after treatment): 0.0
Phytotoxicity (in words) [3]: did not show any phytotoxicity

C#CC1(C)CC(=O)C=C(C)C1(O)C=CC(C)=CC(=O)O (centres unmarked) [PBI-524, 8′ acetylene-ABA, acid]
Number of injured leaves ([3]; 5 days after treatment): 0.0
Number of injured leaves ([3]; 10 days after treatment): 0.0
Phytotoxicity (in words) [3]: did not show any phytotoxicity

NC(N)=O [Urea, urea]
Transpiration rate (% of control) ([2]; 1 mM alone, 1 day after treatment): 103 % of control
Transpiration rate (% of control) ([2]; 1 mM alone, 2 days after treatment): 98 % of control
Transpiration rate (% of control) ([2]; 1 mM alone, 3 days after treatment): 98 % of control
Transpiration rate (% of control) ([2]; 1 mM alone, 4 days after treatment): 100 % of control
Transpiration rate (% of control) ([2]; 10 mM alone, 1 day after treatment): 101 % of control
Transpiration rate (% of control) ([2]; 10 mM alone, 2 days after treatment): 103 % of control
Transpiration rate (% of control) ([2]; 10 mM alone, 3 days after treatment): 106 % of control
Transpiration rate (% of control) ([2]; 10 mM alone, 4 days after treatment): 101 % of control
Transpiration rate (% of control) ([2]; 100 mM alone, 1 day after treatment): 102 % of control
Transpiration rate (% of control) ([2]; 100 mM alone, 2 days after treatment): 102 % of control
Transpiration rate (% of control) ([2]; 100 mM alone, 3 days after treatment): 107 % of control
Transpiration rate (% of control) ([2]; 100 mM alone, 4 days after treatment): 102 % of control
Effect on tomato leaf transpiration (in words) ([2]; 1, 10 or 100 mM alone, 4-day experimental period): Neither urea nor ammonium nitrate at any of three tested concentrations significantly reduced tomato leaf transpiration
